These are literature values, as cited in patent US20020193323A1, “Compositions and methods for promoting a healthy cardiovascular system and enhancing blood flow” (priority 2000, published 2002).

The conditions of data set [1]: in vivo.
For data set [2], the system named is glutathione system. The settings on record: selenium supplementation, through activation of the glutathione system.

Take `CC1=C(/C=C/C(C)=C/C=C/C(C)=C/C=C/C=C(C)/C=C/C=C(C)/C=C/C2=C(C)CCCC2(C)C)C(C)(C)CCC1` [Beta-carotene]: the “reduce risk of major coronary events” value in data set [1] is on record as 51%.
As for `[Se]` [selenium], the “reduced lipid peroxidation levels” value in data set [2] is 50%.
